Key:
[1] = target: Dipeptidyl peptidase 8 (Homo sapiens, UniProt Q6V1X1); assay: Inhibition of human recombinant DPP8 using H-Gly-Pro-AMC substrate after 10 mins by fluorescence assay
[2] = target: Dipeptidyl peptidase 9 (Homo sapiens, UniProt Q86TI2); assay: Inhibition of human recombinant DPP9 using H-Gly-Pro-AMC substrate after 10 mins by fluorescence assay
[3] = target: Voltage-gated inwardly rectifying potassium channel KCNH2 (Homo sapiens, UniProt Q12809); assay: Inhibition of human ERG channel
Sequence of Voltage-gated inwardly rectifying potassium channel KCNH2 (Q12809 whole entry): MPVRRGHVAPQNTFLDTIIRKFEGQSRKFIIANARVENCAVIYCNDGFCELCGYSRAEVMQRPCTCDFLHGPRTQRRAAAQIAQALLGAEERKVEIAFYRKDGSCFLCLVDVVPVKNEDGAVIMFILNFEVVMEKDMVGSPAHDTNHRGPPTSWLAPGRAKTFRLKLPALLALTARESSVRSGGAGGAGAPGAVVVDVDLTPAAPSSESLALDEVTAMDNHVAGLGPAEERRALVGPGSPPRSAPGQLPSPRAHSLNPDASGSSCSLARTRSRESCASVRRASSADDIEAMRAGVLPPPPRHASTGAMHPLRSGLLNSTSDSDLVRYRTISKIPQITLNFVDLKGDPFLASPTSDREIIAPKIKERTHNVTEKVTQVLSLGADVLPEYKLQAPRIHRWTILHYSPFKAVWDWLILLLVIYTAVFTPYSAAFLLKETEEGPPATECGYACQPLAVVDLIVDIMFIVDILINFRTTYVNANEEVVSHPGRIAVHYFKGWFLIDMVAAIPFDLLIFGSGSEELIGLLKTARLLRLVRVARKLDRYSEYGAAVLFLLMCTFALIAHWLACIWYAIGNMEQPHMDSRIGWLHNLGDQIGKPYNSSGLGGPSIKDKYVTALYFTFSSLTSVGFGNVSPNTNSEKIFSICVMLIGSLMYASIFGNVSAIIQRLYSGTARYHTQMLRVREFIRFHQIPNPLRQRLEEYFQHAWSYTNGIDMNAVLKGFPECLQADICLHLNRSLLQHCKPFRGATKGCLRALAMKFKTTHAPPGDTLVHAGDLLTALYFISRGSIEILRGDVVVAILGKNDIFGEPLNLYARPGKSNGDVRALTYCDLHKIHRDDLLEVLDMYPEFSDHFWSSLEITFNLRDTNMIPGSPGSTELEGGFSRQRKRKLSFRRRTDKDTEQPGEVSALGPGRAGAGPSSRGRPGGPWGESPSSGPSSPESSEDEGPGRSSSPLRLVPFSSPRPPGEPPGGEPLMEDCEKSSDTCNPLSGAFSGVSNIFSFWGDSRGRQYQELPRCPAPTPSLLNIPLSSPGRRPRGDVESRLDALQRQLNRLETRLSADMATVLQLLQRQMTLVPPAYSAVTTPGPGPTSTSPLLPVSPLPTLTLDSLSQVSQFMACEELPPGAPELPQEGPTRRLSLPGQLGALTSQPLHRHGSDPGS

[4] = Elimination half life in rat liver microsomes; assay type: ADME; settings: read-out: beta t1/2
[5] = Metabolic stability in rat liver microsome assessed as turnover after 84 mins; assay type: ADME; settings: liver microsomes, read-out: Drug metabolism
[6] = tested on: Mus musculus; assay: Anti-diabetic effect in ICR mouse assessed as plasma glucose lowering effect at 10 mg/kg, po treated 1 hr before 2.5 g/kg, po glucose load by Oral glucose tolerance test relative to control
[7] = tested on: Mus musculus; assay: Anti-diabetic effect in ICR mouse assessed as plasma glucose lowering effect at 10 mg/kg, po treated 8 hrs before 2.5 g/kg, po glucose load measured after 8 hrs by Oral glucose tolerance test relative to control
[8] = Elimination half life in male Sprague-Dawley rat at 5 mg/kg, iv; assay type: ADME, organism-based; settings: in vivo, read-out: beta t1/2 (converted)
[9] = AUC (0 to infinity) in male Sprague-Dawley rat at 10 mg/kg, po; assay type: ADME, organism-based; design: dose 10 mg/kg, route oral, time infinity; settings: in vivo
[10] = Cmax in male Sprague-Dawley rat at 10 mg/kg, po; assay type: ADME, organism-based; design: dose 10 mg/kg, route oral; settings: in vivo
[11] = Cmax in male Sprague-Dawley rat at 5 mg/kg, iv; assay type: ADME, organism-based; design: dose 5 mg/kg, route intravenous; settings: in vivo
[12] = Tmax in male Sprague-Dawley rat at 10 mg/kg, po; assay type: ADME, organism-based; settings: in vivo
[13] = Elimination half life in male Sprague-Dawley rat at 10 mg/kg, po; assay type: ADME, organism-based; settings: in vivo, read-out: beta t1/2 (converted)
[14] = AUC (0 to infinity) in male Sprague-Dawley rat at 5 mg/kg, iv; assay type: ADME, organism-based; design: dose 5 mg/kg, time infinity, route intravenous; settings: in vivo
[15] = Plasma clearance in male Sprague-Dawley rat at 10 mg/kg, po; assay type: ADME, organism-based
[16] = Plasma clearance in male Sprague-Dawley rat at 5 mg/kg, iv; assay type: ADME, organism-based
[17] = tested on: Rattus norvegicus; assay: Volume of distribution at steady state in male Sprague-Dawley rat at 10 mg/kg, po; assay type: ADME, organism-based; settings: in vivo
[18] = Volume of distribution at steady state in male Sprague-Dawley rat at 5 mg/kg, iv; assay type: ADME, organism-based; settings: in vivo, read-out: Vdss
[19] = Oral bioavailability in male Sprague-Dawley rat at 10 mg/kg; assay type: ADME, organism-based; settings: in vivo

Sequence of Dipeptidyl peptidase 8 (Q6V1X1 whole entry): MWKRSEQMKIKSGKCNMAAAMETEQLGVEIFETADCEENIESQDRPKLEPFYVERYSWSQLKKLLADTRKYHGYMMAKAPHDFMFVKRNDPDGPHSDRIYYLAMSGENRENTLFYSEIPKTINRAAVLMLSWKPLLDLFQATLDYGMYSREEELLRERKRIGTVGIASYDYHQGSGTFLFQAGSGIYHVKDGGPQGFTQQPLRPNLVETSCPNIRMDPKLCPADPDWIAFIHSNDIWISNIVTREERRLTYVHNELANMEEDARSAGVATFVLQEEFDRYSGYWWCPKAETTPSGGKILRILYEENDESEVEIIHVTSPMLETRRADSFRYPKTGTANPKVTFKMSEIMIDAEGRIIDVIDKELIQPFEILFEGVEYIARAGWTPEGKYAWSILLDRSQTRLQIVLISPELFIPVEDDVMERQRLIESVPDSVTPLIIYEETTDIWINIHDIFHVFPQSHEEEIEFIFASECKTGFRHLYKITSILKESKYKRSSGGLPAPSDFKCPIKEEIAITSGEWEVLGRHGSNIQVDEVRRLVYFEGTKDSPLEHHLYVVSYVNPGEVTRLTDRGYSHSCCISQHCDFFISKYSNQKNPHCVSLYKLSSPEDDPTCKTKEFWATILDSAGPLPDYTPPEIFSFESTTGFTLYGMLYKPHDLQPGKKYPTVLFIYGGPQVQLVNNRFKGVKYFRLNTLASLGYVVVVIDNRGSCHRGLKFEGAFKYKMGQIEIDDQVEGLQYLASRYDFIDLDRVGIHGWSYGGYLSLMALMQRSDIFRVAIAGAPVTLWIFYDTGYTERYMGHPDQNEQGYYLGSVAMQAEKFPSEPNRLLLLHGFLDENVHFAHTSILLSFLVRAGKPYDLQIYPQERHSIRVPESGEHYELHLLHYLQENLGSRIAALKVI
Sequence of Dipeptidyl peptidase 9 (Q86TI2 whole entry): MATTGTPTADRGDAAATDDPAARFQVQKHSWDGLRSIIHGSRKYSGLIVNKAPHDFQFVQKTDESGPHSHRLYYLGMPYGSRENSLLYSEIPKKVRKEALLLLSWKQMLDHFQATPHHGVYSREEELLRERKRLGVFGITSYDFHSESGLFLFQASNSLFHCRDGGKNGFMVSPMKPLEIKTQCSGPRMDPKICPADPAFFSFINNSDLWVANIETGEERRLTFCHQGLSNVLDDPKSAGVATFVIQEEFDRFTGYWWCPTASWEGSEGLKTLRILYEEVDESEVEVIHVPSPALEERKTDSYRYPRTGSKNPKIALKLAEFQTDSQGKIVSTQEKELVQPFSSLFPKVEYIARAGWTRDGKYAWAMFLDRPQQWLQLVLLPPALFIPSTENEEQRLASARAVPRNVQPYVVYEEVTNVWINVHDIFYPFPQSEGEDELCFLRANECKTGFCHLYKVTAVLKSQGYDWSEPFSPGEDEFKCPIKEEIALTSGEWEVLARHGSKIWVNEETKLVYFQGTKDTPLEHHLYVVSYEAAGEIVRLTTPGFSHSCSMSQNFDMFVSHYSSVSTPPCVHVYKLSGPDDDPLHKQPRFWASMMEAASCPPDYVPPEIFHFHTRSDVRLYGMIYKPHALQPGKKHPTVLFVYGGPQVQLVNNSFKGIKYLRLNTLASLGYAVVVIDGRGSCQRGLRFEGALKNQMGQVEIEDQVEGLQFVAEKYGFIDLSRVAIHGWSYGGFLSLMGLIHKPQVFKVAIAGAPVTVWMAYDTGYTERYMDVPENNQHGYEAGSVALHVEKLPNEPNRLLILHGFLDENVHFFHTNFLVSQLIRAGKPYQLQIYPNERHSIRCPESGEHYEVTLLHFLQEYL

SMILES | IC50 [1] [µM] | IC50 [2] [µM] | half-life [4] [h] | inhibition (INH) [6] [%] | inhibition (INH) [7] [%] | other results
N[C@@H](CC(=O)N1CC(=O)Nc2ccccc2C1)[C@H]1CCc2cc(F)c(F)cc21 | > 10 | > 10 | 1.4 | 34 | 35 | IC50 [3]: > 20 µM; metabolised at 1.4 h [5]: 50%
N[C@@H](CC(=O)N1CCn2c(nnc2C(F)(F)F)C1)Cc1cc(F)c(F)cc1F [SITAGLIPTIN] |  |  |  | 40 | 24 | 
N[C@@H](CC(=O)N1CC(=O)Nc2cc(F)ccc2C1)[C@H]1CCc2cc(F)c(F)cc21 |  |  | 1.85 |  |  | 

The next lines start with results.

IC50 [1] [µM] | IC50 [2] [µM] | half-life [4] [h] | SMILES | inhibition (INH) [6] [%] | inhibition (INH) [7] [%] | other results
> 10 | > 10 | 5.88 | N[C@@H](CC(=O)N1CCn2c(nnc2C(F)(F)F)C1)[C@H]1CCc2cc(F)c(F)cc21 | 57 | 24 | half-life [8]: 4.39 h; AUC(0-inf) [9]: 2850 ng·h/mL; Cmax [10]: 466 ng/mL; Cmax [11]: 1490 ng/mL; Tmax [12]: 0.55 h; half-life [13]: 5.11 h; AUC(0-inf) [14]: 2270 ng·h/mL; CL/F [15]: 59.1 mL/min/kg; clearance [16]: 37 mL/min/kg; Vdss [17]: 25.792 L/kg; Vd [18]: 14.2 L/kg; bioavailability [19]: 61%; IC50 [3]: > 20 µM
> 10 | > 10 |  | N[C@@H](CC(=O)N1CC(=O)Nc2cc(F)c(F)cc2C1)[C@H]1CCc2cc(F)c(F)cc21 |  |  | 
> 10 | > 10 |  | CN1C(=O)CN(C(=O)C[C@H](N)[C@H]2CCc3cc(F)c(F)cc32)Cc2ccccc21 | 29 | 38 | 
> 10 | > 10 |  | CN1C(=O)CN(C(=O)C[C@H](N)[C@H]2CCc3cc(F)c(F)cc32)Cc2ccc(F)cc21 | 48 | 30 | 

Reference: ChEMBL document CHEMBL3580611, “Design, Synthesis, and Pharmacological Evaluation of Fused β-Homophenylalanine Derivatives as Potent DPP-4 Inhibitors” (ACS Med Chem Lett, 2015)
